From patent US9120771B2, “Azetidine derivative and antidepressant composition including the same” (KOREA INSTITUTE OF SCIENCE AND TECHNOLOGY, priority 2011, dated 2015)
Structures can show the parent of a compound that is named as a salt. Where two headings read alike, the source gives them in different places.

What was measured:
[1] = molecular target: human dopamine transporter (Homo sapiens (Human), UniProt Q01959); test: hDAT binding assay ([3H]WIN35,428); conditions: for inhibition at 10 µM: read-out: hDAT binding assay %-inhibition (10 uM); for IC50: membrane from CHO-K1 cells, 8 nM [3H]WIN35,428;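 on all read-outs here: displacement of the radioligand from the transporter membranes, incubated 120 min at 4 °C in Tris-HCl buffer with NaCl, pH 7.4, measured by filter-bound radioactivity counting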
Sequence of human dopamine transporter (Q01959 whole entry): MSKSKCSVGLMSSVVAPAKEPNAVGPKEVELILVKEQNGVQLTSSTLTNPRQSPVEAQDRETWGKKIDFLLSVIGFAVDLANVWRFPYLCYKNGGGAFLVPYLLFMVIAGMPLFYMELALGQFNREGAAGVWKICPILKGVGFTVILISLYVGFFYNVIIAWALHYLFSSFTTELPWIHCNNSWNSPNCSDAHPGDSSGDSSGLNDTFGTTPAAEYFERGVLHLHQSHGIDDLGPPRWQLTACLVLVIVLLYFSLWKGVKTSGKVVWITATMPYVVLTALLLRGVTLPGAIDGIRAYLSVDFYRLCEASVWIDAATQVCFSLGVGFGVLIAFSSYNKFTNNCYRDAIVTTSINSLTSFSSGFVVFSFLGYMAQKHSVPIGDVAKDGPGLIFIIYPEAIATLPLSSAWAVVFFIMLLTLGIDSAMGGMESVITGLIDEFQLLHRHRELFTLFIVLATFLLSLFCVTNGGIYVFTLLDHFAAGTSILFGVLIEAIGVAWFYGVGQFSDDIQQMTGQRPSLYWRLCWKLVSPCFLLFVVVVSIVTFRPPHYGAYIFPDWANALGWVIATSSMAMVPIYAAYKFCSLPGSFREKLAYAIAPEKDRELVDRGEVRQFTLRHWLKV

[2] = molecular target: human norepinephrine transporter (Homo sapiens (Human), UniProt P23975); test: hNET binding assay ([3H]Nisoxetine); conditions: for inhibition at 10 µM: read-out: hNET binding assay %-inhibition (10 uM)
Sequence of human norepinephrine transporter (P23975 whole entry): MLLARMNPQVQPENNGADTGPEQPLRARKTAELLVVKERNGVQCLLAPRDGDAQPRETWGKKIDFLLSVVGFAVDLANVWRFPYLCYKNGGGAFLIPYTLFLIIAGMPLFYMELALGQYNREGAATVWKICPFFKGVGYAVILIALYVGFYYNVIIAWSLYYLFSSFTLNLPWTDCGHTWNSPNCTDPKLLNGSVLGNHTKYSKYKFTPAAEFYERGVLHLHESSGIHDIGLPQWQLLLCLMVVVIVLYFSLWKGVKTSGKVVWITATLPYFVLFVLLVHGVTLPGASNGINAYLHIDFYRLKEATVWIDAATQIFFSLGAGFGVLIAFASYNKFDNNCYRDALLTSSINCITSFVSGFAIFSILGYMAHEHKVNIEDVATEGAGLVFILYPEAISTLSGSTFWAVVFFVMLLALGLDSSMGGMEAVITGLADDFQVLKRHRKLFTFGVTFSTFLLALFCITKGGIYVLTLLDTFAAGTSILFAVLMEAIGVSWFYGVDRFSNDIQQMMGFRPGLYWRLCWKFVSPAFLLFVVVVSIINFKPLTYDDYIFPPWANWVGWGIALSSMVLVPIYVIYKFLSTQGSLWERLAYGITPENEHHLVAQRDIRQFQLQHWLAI
Method: NE transporter binding assay for evaluating binding of the compound to the norepinephrine transporter was carried out using human recombinant norepinephrine transporter membrane (PerkinElmer Life and Analytical Sciences, USA) expressed in MDCK cells and radioisotope [^3H]Nisoxetine (PerkinElmer).
That is, the test drug, 6 nM [^3H]Nisoxetine, norepinephrine transporter membrane (11 ug/well), 120 mM NaCl and 50 mM Tris-HCl buffer (pH 7.4) containing 5 mM KCl were added to obtain a reaction mixture with a final volume of 0.25 ml. After incubation for 60 minutes at 4° C., the mixture was quickly passed through a Filtermat A glass fiber filter pre-soaked with 0.5% (w/v) PEI (polyethyleneimine) using Inotech Harvester (Inotech) to terminate the reaction. After washing with cold washing buffer (50 mM Tris-HCl, pH 7.4, 0.9% NaCl) solution, the filter was covered with MeltiLex and sealed in a sample bag. After drying in an oven, radioactivity was counted using MicroBeta Plus (Wallac).
Non-specific binding was measured in the presence of 1 uM desipramine. The IC50 value of the test drug was calculated from non-linear regression analysis (GraphPad Prism Program, San Diego, USA) of each %-inhibition value obtained from the drug with concentrations of 7th and 8th steps.

[3] = molecular target: human serotonin transporter (Homo sapiens (Human), UniProt P31645); test: hSERT binding assay ([3H]Imipramine); conditions: for inhibition at 10 µM: read-out: hSERT binding assay %-inhibition (10 uM);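 on all read-outs here: displacement of radiolabeled imipramine from the transporter, incubated 30 min at 27 °C in Tris-HCl pH 7.4 with NaCl and KCl, bound radioactivity counted after filtration, nonspecific binding defined with 200 uM imipramine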
Sequence of human serotonin transporter (P31645 whole entry): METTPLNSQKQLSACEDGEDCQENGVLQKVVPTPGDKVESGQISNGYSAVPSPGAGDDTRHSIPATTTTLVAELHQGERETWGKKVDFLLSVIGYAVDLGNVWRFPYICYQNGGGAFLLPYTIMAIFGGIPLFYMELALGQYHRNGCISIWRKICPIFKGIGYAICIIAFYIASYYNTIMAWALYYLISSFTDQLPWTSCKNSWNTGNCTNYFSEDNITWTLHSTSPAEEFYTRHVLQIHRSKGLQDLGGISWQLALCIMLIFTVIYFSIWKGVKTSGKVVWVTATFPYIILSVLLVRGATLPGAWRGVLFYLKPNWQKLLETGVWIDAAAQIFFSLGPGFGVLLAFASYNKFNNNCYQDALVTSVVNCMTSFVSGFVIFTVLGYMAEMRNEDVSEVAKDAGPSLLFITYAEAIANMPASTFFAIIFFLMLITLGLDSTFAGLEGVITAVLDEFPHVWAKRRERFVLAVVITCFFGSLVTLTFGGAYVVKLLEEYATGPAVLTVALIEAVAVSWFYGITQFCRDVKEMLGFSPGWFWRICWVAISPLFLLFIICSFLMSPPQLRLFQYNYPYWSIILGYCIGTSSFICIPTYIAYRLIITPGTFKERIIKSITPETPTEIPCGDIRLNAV

[4] = 10 uM, membrane from MDCK cells
[5] = 10 uM, membrane from HEK293 cells
[6] = membrane from HEK293 cells, 2 nM [3H]Imipramine
[7] = membrane from MDCK cells, 6 nM [3H]Nisoxetine

| melting point [°C] | Structure (SMILES) | also measured |
| --- | --- | --- |
| 223 | Cl.OC(c1ccccc1)C1CNC1 (stereo not shown) | – |
| 228 | COC(c1ccccc1)C1CNC1.Cl (stereo not shown) | – |
| 205 | CCOC(c1ccccc1)C1CNC1.Cl (stereo not shown) | – |
| 151 | CCCOC(c1ccc(Cl)c(Cl)c1)C1CNC1.Cl (stereo not shown) | – |
| 224 | Cl.Fc1ccccc1OC(c1ccc(Cl)c(Cl)c1)C1CNC1 (stereo not shown) | – |
| 218 | Cl.Fc1cccc(OC(c2ccc(Cl)c(Cl)c2)C2CNC2)c1 (stereo not shown) | – |
| 210 | Cl.Fc1ccc(OC(c2ccc(Cl)c(Cl)c2)C2CNC2)cc1 (stereo not shown) | – |
| 197 | Cl.Clc1ccc(C(Oc2ccccc2Cl)C2CNC2)cc1Cl (stereo not shown) | – |
| 169 | Cl.Clc1cccc(OC(c2ccc(Cl)c(Cl)c2)C2CNC2)c1 (stereo not shown) | – |
| 201 | Cl.Clc1ccc(OC(c2ccc(Cl)c(Cl)c2)C2CNC2)cc1 (stereo not shown) | – |
| 225 | Cl.FC(F)(F)Oc1ccccc1OC(c1ccc(Cl)c(Cl)c1)C1CNC1 (stereo not shown) | – |
| 208 | Cl.FC(F)(F)Oc1cccc(OC(c2ccc(Cl)c(Cl)c2)C2CNC2)c1 (stereo not shown) | – |
| 217 | Cl.FC(F)(F)Oc1ccc(OC(c2ccc(Cl)c(Cl)c2)C2CNC2)cc1 (stereo not shown) | – |
| 240 | Cl.Fc1ccc(OC(c2ccc(Cl)c(Cl)c2)C2CNC2)cc1F (stereo not shown) | – |
| 208 | Cl.Clc1ccc(OC(c2ccc(Cl)c(Cl)c2)C2CNC2)cc1Cl (stereo not shown) | – |
| 205 | CCOC(c1ccc2ccccc2c1)C1CNC1.Cl (stereo not shown) | – |
| 223 | CCCOC(c1ccc2ccccc2c1)C1CNC1.Cl (stereo not shown) | – |
| 218 | Cl.c1ccc(OC(c2ccc3ccccc3c2)C2CNC2)cc1 (stereo not shown) | – |
| 211 | Cl.Fc1ccccc1OC(c1ccc2ccccc2c1)C1CNC1 (stereo not shown) | – |
| 216 | Cl.Fc1cccc(OC(c2ccc3ccccc3c2)C2CNC2)c1 (stereo not shown) | – |
| 214 | Cl.Fc1ccc(OC(c2ccc3ccccc3c2)C2CNC2)cc1 (stereo not shown) | – |
| 213 | Cc1ccccc1OC(c1ccc2ccccc2c1)C1CNC1.Cl (stereo not shown) | – |
| 210 | Cc1cccc(OC(c2ccc3ccccc3c2)C2CNC2)c1.Cl (stereo not shown) | – |
| 203 | Cc1ccc(OC(c2ccc3ccccc3c2)C2CNC2)cc1.Cl (stereo not shown) | – |
| 207 | Cl.Clc1ccccc1OC(c1ccc2ccccc2c1)C1CNC1 (stereo not shown) | – |

| melting point [°C] | Structure (SMILES) | also measured |
| --- | --- | --- |
| 214 | Cl.Clc1cccc(OC(c2ccc3ccccc3c2)C2CNC2)c1 (stereo not shown) | – |
| 211 | Cl.Clc1ccc(OC(c2ccc3ccccc3c2)C2CNC2)cc1 (stereo not shown) | – |
| 228 | Cl.FC(F)(F)Oc1ccccc1OC(c1ccc2ccccc2c1)C1CNC1 (stereo not shown) | – |
| 217 | Cl.FC(F)(F)Oc1cccc(OC(c2ccc3ccccc3c2)C2CNC2)c1 (stereo not shown) | – |
| 209 | Cl.FC(F)(F)Oc1ccc(OC(c2ccc3ccccc3c2)C2CNC2)cc1 (stereo not shown) | – |
| 212 | Cl.Fc1ccc(OC(c2ccc3ccccc3c2)C2CNC2)cc1F (stereo not shown) | – |
| 217 | Cl.Clc1ccc(OC(c2ccc3ccccc3c2)C2CNC2)cc1Cl (stereo not shown) | – |
| 215 | CCOC(c1ccc(Cl)c(F)c1)C1CNC1.Cl (stereo not shown) | – |
| 201 | Cl.Fc1cc(C(Oc2ccccc2)C2CNC2)ccc1Cl (stereo not shown) | – |
| 198 | Cl.Fc1cc(C(Oc2ccccc2F)C2CNC2)ccc1Cl (stereo not shown) | – |
| 217 | Cl.Fc1cccc(OC(c2ccc(Cl)c(F)c2)C2CNC2)c1 (stereo not shown) | – |
| 218 | Cl.Fc1ccc(OC(c2ccc(Cl)c(F)c2)C2CNC2)cc1 (stereo not shown) | – |
| 205 | Cc1ccccc1OC(c1ccc(Cl)c(F)c1)C1CNC1.Cl (stereo not shown) | – |
| 203 | Cc1cccc(OC(c2ccc(Cl)c(F)c2)C2CNC2)c1.Cl (stereo not shown) | – |
| 173 | Cc1ccc(OC(c2ccc(Cl)c(F)c2)C2CNC2)cc1.Cl (stereo not shown) | – |
| 220 | Cl.Fc1cc(C(Oc2ccccc2Cl)C2CNC2)ccc1Cl (stereo not shown) | – |
| 204 | Cl.Fc1cc(C(Oc2cccc(Cl)c2)C2CNC2)ccc1Cl (stereo not shown) | – |
| 203 | Cl.Fc1cc(C(Oc2ccc(Cl)cc2)C2CNC2)ccc1Cl (stereo not shown) | – |
| 166 | Cl.Fc1cc(C(Oc2ccccc2OC(F)(F)F)C2CNC2)ccc1Cl (stereo not shown) | – |
| 145 | Cl.Fc1cc(C(Oc2cccc(OC(F)(F)F)c2)C2CNC2)ccc1Cl (stereo not shown) | – |
| 151 | Cl.Fc1cc(C(Oc2ccc(OC(F)(F)F)cc2)C2CNC2)ccc1Cl (stereo not shown) | – |
| 216 | Cl.Fc1ccc(OC(c2ccc(Cl)c(F)c2)C2CNC2)cc1F (stereo not shown) | – |
| 192 | Cl.Fc1cc(C(Oc2ccc(Cl)c(Cl)c2)C2CNC2)ccc1Cl (stereo not shown) | – |
| 191 | Cl.Fc1cc(C(OCc2ccccc2)C2CNC2)ccc1Cl (stereo not shown) | – |
| 208 | Cl.Fc1ccc(C(Oc2ccccc2)C2CNC2)cc1Cl (stereo not shown) | – |

| melting point [°C] | Structure (SMILES) | also measured |
| --- | --- | --- |
| 194 | Cl.Fc1ccc(C(Oc2ccccc2F)C2CNC2)cc1Cl (stereo not shown) | – |
| 209 | Cl.Fc1cccc(OC(c2ccc(F)c(Cl)c2)C2CNC2)c1 (stereo not shown) | – |
| 211 | Cl.Fc1ccc(OC(c2ccc(F)c(Cl)c2)C2CNC2)cc1 (stereo not shown) | – |
| 188 | Cl.Fc1ccc(C(Oc2ccccc2Cl)C2CNC2)cc1Cl (stereo not shown) | – |
| 205 | Cl.Fc1ccc(C(Oc2cccc(Cl)c2)C2CNC2)cc1Cl (stereo not shown) | – |
| 218 | Cl.Fc1ccc(C(Oc2ccc(Cl)cc2)C2CNC2)cc1Cl (stereo not shown) | – |
| 209 | Cc1ccccc1OC(c1ccc(F)c(Cl)c1)C1CNC1.Cl (stereo not shown) | – |
| 151 | Cc1cccc(OC(c2ccc(F)c(Cl)c2)C2CNC2)c1.Cl (stereo not shown) | – |
| 183 | Cc1ccc(OC(c2ccc(F)c(Cl)c2)C2CNC2)cc1.Cl (stereo not shown) | – |
| 157 | Cl.Fc1ccc(C(Oc2ccccc2OC(F)(F)F)C2CNC2)cc1Cl (stereo not shown) | – |
| 157 | Cl.Fc1ccc(C(Oc2cccc(OC(F)(F)F)c2)C2CNC2)cc1Cl (stereo not shown) | – |
| 187 | Cl.Fc1ccc(OC(c2ccc(F)c(Cl)c2)C2CNC2)cc1F (stereo not shown) | – |
| 186 | Cl.Fc1ccc(C(Oc2ccc(Cl)c(Cl)c2)C2CNC2)cc1Cl (stereo not shown) | – |
| 116 | CCCOC(c1ccc(F)c(F)c1)C1CNC1.Cl (stereo not shown) | – |
| 187 | Cl.Fc1ccc(C(Oc2ccccc2F)C2CNC2)cc1F (stereo not shown) | – |
| 188 | Cl.Fc1ccc(OC(c2ccc(F)c(F)c2)C2CNC2)cc1 (stereo not shown) | – |
| 174 | Cl.Fc1ccc(C(Oc2ccccc2Cl)C2CNC2)cc1F (stereo not shown) | – |
| 152 | Cl.Fc1ccc(C(Oc2cccc(Cl)c2)C2CNC2)cc1F (stereo not shown) | – |
| 151 | Cc1ccccc1OC(c1ccc(F)c(F)c1)C1CNC1.Cl (stereo not shown) | – |
| 189 | Cc1cccc(OC(c2ccc(F)c(F)c2)C2CNC2)c1.Cl (stereo not shown) | – |
| 159 | Cc1ccc(OC(c2ccc(F)c(F)c2)C2CNC2)cc1.Cl (stereo not shown) | – |
| 183 | Cl.c1ccc(C(Oc2ccc3ccccc3c2)C2CNC2)cc1 (stereo not shown) | – |
| 175 | Clc1ccc(C(Oc2ccccc2)C2CNC2)cc1Cl (stereo not shown) (as salt: hydrochloride) [KHG26767, 3-((3,4-dichlorophenyl)(phenoxy)methyl)azetidine hydrochloride] | – |

| Structure (SMILES) | melting point [°C] | also measured |
| --- | --- | --- |
| COC(c1ccc(Cl)cc1)C1CNC1.Cl (stereo not shown) [KHG26753, 3-((4-chlorophenyl)(methoxy)methyl)azetidine hydrochloride] | 281 | inhibition at 10 µM [1]: 58%; inhibition at 10 µM [2, 4]: 52%; inhibition at 10 µM [3, 5]: 95%; IC50 [3, 6]: 0.0429 µM |
| CCOC(c1ccc(Cl)cc1)C1CNC1.Cl (stereo not shown) [KHG26754, 3-((4-chlorophenyl)(ethoxy)methyl)azetidine hydrochloride] | 190 | IC50 [1]: 1.95 µM; inhibition at 10 µM [1]: 76%; inhibition at 10 µM [2, 4]: 91%; IC50 [2, 7]: 0.666 µM; inhibition at 10 µM [3, 5]: 95%; IC50 [3, 6]: 0.12 µM |
| COC(c1ccc(Cl)c(Cl)c1)C1CNC1.Cl (stereo not shown) [KHG26756, 3-((3,4-dichlorophenyl)(methoxy)methyl)azetidine hydrochloride] | 109 | inhibition at 10 µM [1]: 54%; inhibition at 10 µM [2, 4]: 85%; IC50 [2, 7]: 0.339 µM; inhibition at 10 µM [3, 5]: 79%; IC50 [3, 6]: 0.271 µM |
| CCOC(c1ccc(Cl)c(Cl)c1)C1CNC1.Cl (stereo not shown) [KHG26757, 3-((3,4-dichlorophenyl)(ethoxy)methyl)azetidine hydrochloride] | 156 | inhibition at 10 µM [1]: 58%; IC50 [2]: 0.153 µM; inhibition at 10 µM [2]: 86%; IC50 [3]: 0.0975 µM; inhibition at 10 µM [3]: 83% |
| Cl.O=C(OC(c1ccccc1)C1CNC1)c1ccccc1 (stereo not shown) [KHG26771, azetidine-3-yl(phenyl)methyl benzoate hydrochloride] | 215 | IC50 [1]: 1.68 µM; inhibition at 10 µM [1]: 77%; inhibition at 10 µM [2, 4]: 54%; IC50 [3]: 0.402 µM; inhibition at 10 µM [3]: 92% |
